# Like-named read-outs stand apart in the source and are kept apart here.
# How the values were obtained:
# [1] = Description: 60 ppm concentration Deuterium Depleted Water was used for healthy adult outbred Wistar rats. Mono-chemotherapy was used to treat these animals using the following cytostatics: Vinblastine (VBL); Cyclophosphamide (CFS); 5-Fluorouracil (5-Fu); Farmarubicine (FARM). The administered doses were:
# VBL—0.1 mg/kg body weight;
# 5-Fu—10 mg/kg body weight; and
# FARM—1 mg/kg body weight.
# The cytostatics were intra-peritoneally administered (i.p.) for 5 days consecutively.
# The animals were distributed into two groups, as:
# Animal sacrifice occurred over 5 and 10 days, respectively from the last cytostatic dose. After animal sacrifice, some tests were performed: bio-chemical, cyto-histological and morphological tests (on liver, spleen, kidneys), and tests for 3HTdR incorporation into lymphoid organs (bone marrow and lympho-nodules).
# The protective effect of the 60 ppm Deuterium Depleted Water against the toxicity generated by cytostatics were studied using lots of 88 Wistar rats, each lot, males and females, with an average weight of 172 g. The animal lots were established as per GLP on pharmacological studies on laboratory-tested animals.
# [2] = Measurement of protein, glycoprotein and serum protein glycolysis; type: in vivo, Wistar rats; conditions: for Amount of glycolysis with Deuterium Depleted Water: 60 ppm DDW daily diet; for Percentage of decrease of protein glycolysis in animals receiving DDW: DDW versus tap water; for Amount of Glycolysis with Tap Water: tap water daily diet
# Excerpt: The methods used for these measurements are well known (measuring burette and the (glucidic) glucose compound dosing in the reaction with orto-toluidine).
# [3] = serum, 8 rats per lot
# [4] = TW-control group (150 ppm Deuterium tap water daily diet)
# [5] = DDW group, cytostatic i.p. 5 days
# [6] = TW-control group similarly treated, animals with obvious toxicity signs had to be sacrificed
# [7] = DDW group (daily diet with Deuterium Depleted Water)
# Procedure for P450 cyto-chromes: To study it, the cell organelles were separated by repeated centrifugation with a final separation of microsomes at 105,000 g via ultra-centrifugation. At the microsomes level, the P450 cyto-chromes (a member of the iso-enzymes family) activity and concentration are measured, which are the most important indications of enzyme activation (MFO).
# The P450 concentration is spectrophotometrically determined after CO and Natriumdithionit reduction of microsomal P450 (Omura and Sato method). […] The enzymatic activity has been determined for a single substratum, namely for p-nitroanisol, which involves a de-metilation reaction.
SMILES,"spontaneous mortality [1, 5]","spontaneous mortality [1, 6]","signs of toxicity during the 5 days of therapy and post-therapy period ([1]; rat, in vivo, ip)",P450 activity relative to the control group (P450 cyto-chromes; group of animals treated with Deuterium depleted Water),Amount of glycolysis with Deuterium Depleted Water [2],Percentage of decrease of protein glycolysis in animals receiving DDW [2],Amount of Glycolysis with Tap Water [2],"Sialic acid (average values) [3, 7]",Sialic acid (average values) ([3]; TW-control group),"signs of toxicity during the 5 days of therapy and post-therapy period [1, 5]",decrease of the phase I and II enzymes (P450 cyto-chromes; group TW-CFS),findings in peripheral blood [4],"percentage of mortality ([1]; DDW group (60 ppm DDW daily diet), cytostatic i.p. 5 days)","percentage of mortality ([1]; TW-control group (tap water daily diet), cytostatic i.p. 5 days)","body weight increase ([1]; rat, in vivo)"
"O=c1[nH]cc(F)c(=O)[nH]1 [5-fluorouracil, 5-Fluorouracil]",no records of any spontaneous dead animals,spontaneous mortality occurred,no signs of toxicity,approximately 200%,4.2 mg glucides/g proteins,39%,6.89 mg glucides/g proteins,2.43 mmol/L,3.04 mmol/L,,,,,,
"COc1cccc2c1C(=O)c1c(O)c3c(c(O)c1C2=O)C[C@@](O)(C(=O)CO)C[C@@H]3O[C@H]1C[C@H](N)[C@@H](O)[C@H](C)O1 [farmarubicine, Farmarubicine]",no records of any spontaneous dead animals,spontaneous mortality occurred,no signs of toxicity,,6.3 mg glucides/g proteins,35%,9.72 mg glucides/g proteins,2.62 mmol/L,2.88 mmol/L,,,,,,
O=P1(N(CCCl)CCCl)NCCCO1 (stereo not drawn) [Cyclophosphamide],no records of any spontaneous dead animals,spontaneous mortality occurred,,,5.47 mg glucides/g proteins,17%,6.59 mg glucides/g proteins,2.68 mmol/L,2.77 mmol/L,no signs of toxicity,approximately 100%,anemia and granulopenia,,,
"CC[C@]1(O)C[C@@H]2CN(CCc3c([nH]c4ccccc34)[C@@](C(=O)OC)(c3cc4c(cc3OC)N(C)[C@H]3[C@@](O)(C(=O)OC)[C@H](OC(C)=O)[C@]5(CC)C=CCN6CC[C@]43[C@@H]65)C2)C1 [vinblastine, Vinblastine]",,,low intensity toxic effects,,7.5 mg glucides/g proteins,7%,8.06 mg glucides/g proteins,2.82 mmol/L,3.00 mmol/L,,,,25%,66%,far more evident

# Reference: patent publication US20080213390A1, “Deuterium Depleted Water (Ddw) Using As Adjuvant In Cancer Therapy For Cytostatics Toxicity Reducing” (priority 2005, published 2008)
